Assay results from ChEMBL document CHEMBL3588827, “A new class of ghrelin O-acyltransferase inhibitors incorporating triazole-linked lipid mimetic groups” (Bioorg Med Chem Lett, 2015).

Target: T1, Membrane-bound ghrelin O-acyltransferase MBOAT4 (Homo sapiens, UniProt Q96T53)
T1 sequence (Q96T53 whole entry): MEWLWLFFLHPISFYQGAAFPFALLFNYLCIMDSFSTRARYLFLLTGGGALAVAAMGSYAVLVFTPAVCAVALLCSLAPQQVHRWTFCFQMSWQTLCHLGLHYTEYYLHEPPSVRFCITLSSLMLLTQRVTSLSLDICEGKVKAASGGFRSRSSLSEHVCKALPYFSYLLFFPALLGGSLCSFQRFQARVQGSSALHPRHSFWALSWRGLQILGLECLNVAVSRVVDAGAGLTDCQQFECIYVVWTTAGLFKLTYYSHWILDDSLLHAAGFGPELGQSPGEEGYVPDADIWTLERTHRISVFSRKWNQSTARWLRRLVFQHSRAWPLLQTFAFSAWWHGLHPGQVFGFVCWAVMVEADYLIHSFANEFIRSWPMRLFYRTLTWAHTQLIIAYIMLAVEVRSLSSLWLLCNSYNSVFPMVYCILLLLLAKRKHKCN
Assay: Inhibition of human GOAT octanoylation activity expressed in insect Sf9 cell membranes using GSSFLCAcDan as substrate after 1 hr by reverse phase HPLC with fluorescence detection method

IC50 | Structure (SMILES)
> 1 µM | CC(C)C[C@H](NC(=O)[C@H](Cc1ccccc1)NC(=O)[C@H](Cn1cc(CCCCc2ccccc2)nn1)NC(=O)[C@H](CO)NC(=O)CN)C(N)=O
6 µM | CC(C)C[C@H](NC(=O)[C@H](Cc1ccccc1)NC(=O)[C@H](Cn1cc(Cc2ccccc2)nn1)NC(=O)[C@H](CO)NC(=O)CN)C(N)=O
0.7 µM | CC(C)C[C@H](NC(=O)[C@H](Cc1ccccc1)NC(=O)[C@H](Cn1cc(CCCc2ccccc2)nn1)NC(=O)[C@H](CO)NC(=O)CN)C(N)=O
3.8 µM | CC(C)C[C@H](NC(=O)[C@H](Cc1ccccc1)NC(=O)[C@H](Cn1cc(CCc2ccccc2)nn1)NC(=O)[C@H](CO)NC(=O)CN)C(N)=O
